Literature values in patent publication US20240398903A1, “COMPOSITION AND METHODS OF TREATMENT USING […] - ENHANCED SUPPLEMENTATION” (Xygenyx Inc., priority 2023, published 2024).

What was measured:
[1] = mice
skin [2] = conditions: penetration enhancer for transdermal drugs
[3] = system: wide dynamic range neurons in the ventroposterolateral nucleus of the thalamus; conditions: in vivo
[4] = in vivo
skin [5] = conditions: topical, concentrations 0.5-5%
[6] = as compared to α-tocopherol (factor 1.0)
[7] = even when dietary intake occurs in equal portions
[8] = in vivo; remark: listed apart in the source

Compound: CC(CN)C(=O)O [L-BAIBA, L-beta-aminoisobutyric acid]
- tolerated dose [1]: 10-100 mg/kg of bodyweight

Compound: CC(C)[C@@H]1CC[C@@H](C)C[C@H]1O [Menthol]
- increase of drug uptake via the transdermal route (factor) (skin [2]): ≥ 10

Compound: CCCCCc1cc(O)c2c(c1)OC(C)(C)C1CCC(C)=CC21 (stereo not drawn) [THC, Δ-9-tetrahydrocannabinol]
- power in mediating pain relative to morphine [3]: ten times more powerful than morphine

Compound: CCNC(=O)CC[C@H](N)C(=O)O [Theanine]
- dose considered safe and well-tolerated [4]: up to 400 mg per day

Compound: C=CCCCCCCCCC(=O)N[C@@H](Cc1ccccc1)C(=O)O [UP, Undecylenoyl phenylalanine]
- time of treatment to skin lightening effects (skin [5]): ≥ 7 days

Compound: CC12CCC(CC1)C(C)(C)O2 [eucalyptol, 1,8-epoxy-p-menthane]
- increase of drug uptake via the transdermal route (factor) (skin [2]): more than 10

Compound: Cc1c(C)c2c(c(C)c1O)CC[C@@](C)(CCC[C@H](C)CCC[C@H](C)CCCC(C)C)O2 [α-tocopherol]
- relative biological activity [6]: 1.0
- reducing the risk of coronary disease (dietary supplementation, doses up to 400 IU/day): up to 34%
- reduce the risk of developing neurodegenerative diseases such as Alzheimer's Syndrome or dementia (dietary supplementation, doses up to 400 IU/day, controlled trials): ≤ 24%
- reduction in the development of age-related cataracts (in combination with 10-20 mg β-carotene and 400-500 mg vitamin C): 23%

Compound: Cc1cc(O)c(C)c2c1O[C@](C)(CCC[C@H](C)CCC[C@H](C)CCCC(C)C)CC2 [β-tocopherol]
- relative biological activity [6]: 0.5

Compound: Cc1c(O)cc2c(c1C)O[C@](C)(CCC[C@H](C)CCC[C@H](C)CCCC(C)C)CC2 [γ-tocopherol]
- relative biological activity [6]: 0.1
- concentration in vivo relative to α-tocopherol [7]: roughly 10%

Compound: Cc1cc(O)cc2c1O[C@](C)(CCC[C@H](C)CCC[C@H](C)CCCC(C)C)CC2 [δ-tocopherol]
- relative biological activity [6]: 0.03

Compound: HGH: hormone comprising a peptide chain that is synthesized in the pituitary gland
- biological half-life [8]: 10-20 minutes
